Assay results as given in US8927498B2, “Compositions and methods useful in enhancement of memory” (The Translational Genomics Research Institute, priority 2010, dated 2015).
Entries after “also recorded” stand apart in the source; their conditions may differ.

Columns and labels:
[1] = tested on: seventeen-month-old Fischer-344 male rats (aged rat model of cognitive decline); experiment: water-escape radial arm maze, spatial working memory; assay type: in vivo; conditions: 17-month-old Fischer-344 male rats, 1 mg/kg/day, vs vehicle (saline)
Procedure: (§1) In one embodiment of the present disclosed invention, the transduction complex comprises a fusion peptide including a TAT protein transduction domain and residues surrounding two known serine phosphorylation targets (Ser159 and Ser163) within MARCKS (SEQ ID NO: 3). The compound was administered to seventeen-month-old rats and behavioral spatial working memory of the rats was assessed by behavior testing. […] Such assays include, without limitation, the Morris water maze and the radial arm water maze, plus maze. For example, when employing the Morris water maze, a rat is trained to swim to a submerged platform. The rat can then be treated with an agent at a particular dose for a particular duration. Following treatment, the mean escape latency (i.e., time to find platform) is measured and compared to the mean escape latency of a control. […] Following treatment, the ability of the rat to remember a newly-learned path is measured and compared to that of a control. […] In the water Plus Maze test, the variables measured include the percentage of time spent in the open and closed areas of the maze, the latency to leave the central platform, the total number of crossings between the various open and closed areas of the maze, and the number of crossings into the open areas of the maze divided by the total number of crossings. […]

[2] = tested on: Tiam1; experiment: RT-PCR validation of Tiam1 normalized to GADPH; assay type: in vivo, rat; conditions: n = 9; vehicle 1.02
Text: Following sacrifice, the left hippocampus was utilized for genome-wide expression profiling. […] These included Adcyap1 with fold change (FC) of 1.5, and p=0.029, Tiam1 with FC of −1.5 and p=0.028, and Filip1 with FC of −1.75 and p=0.032 (Table 1). The RT-PCR validation of the fold change of FILIP1 and Tiam1 is shown in Table 2 and Table 3, respectively.

[3] = tested on: seventeen-month-old Fischer-344 male rats (aged rat model of cognitive decline); experiment: water-escape plus maze, spatial working memory; assay type: in vivo; conditions: 17-month-old Fischer-344 male rats, 1 mg/kg/day, vs vehicle (saline), n=9
Procedure: as §1

SEQ ID NO: 1: fusion peptide including a TAT protein transduction domain and residues surrounding two known serine phosphorylation targets (Ser159 and Ser163) within MARCKS (YGRKKRRQRRRCKRFSFKKSFKLSGFSFKK; TAT MARCKS fusion)
working memory performance in water-escape radial arm maze ([1]; n=9): better able to process multiple items of information; also recorded: enhanced working memory performance | working memory performance in water-escape radial arm maze ([1]; n=9, listed as MARCKS peptide decoy): better performance in the radial arm water maze | RT-PCR Tiam1 Average normalized to GADPH [2]: 0.89 | working memory performance in water-escape plus maze [3]: acquired the plus maze task at a faster rate; also recorded: enhanced working memory performance
